In data set [1] the test system is biotinylated human D-SDF-1. Description: Direct pull-down binding assay. The note with it: aptamer (D-RNA), 37° C.; read-out: equilibrium binding constant KD, pull-down binding assay. As to the method:
The affinity of aptamers to biotinlayted human D-SDF-1 was measured in a pull-down binding assay format at 37° C. Aptamers were 5′-phosphate labeled by T4 polynucleotide kinase (Invitrogen, Karlsruhe, Germany) using [γ-^32P]-labeled ATP (Hartmann Analytic, Braunschweig, Germany). The specific radioactivity of labeled aptamers was 200,000-800,000 cpm/pmol. Aptamers were incubated after de- and renaturation at 10, 20, 30 or 40 pM concentration at 37° C. in selection buffer (20 mM Tris-HCl pH 7.4; 137 mM NaCl; 5 mM KCl; 1 mM MgCl2; 1 mM CaCl2; 0.1% [w/vol] Tween-20) together with varying amounts of biotinlayted human D-SDF-1 for 4-12 hours in order to reach equilibrium at low concentrations. Selection buffer was supplemented with 10 μg/ml human serum albumin (Sigma-Aldrich, Steinheim, Germany), and 10 μg/ml yeast RNA (Ambion, Austin, USA) in order to prevent adsorption of binding partners with surfaces of used plasticware or the immobilization matrix. The concentration range of biotinlayted human D-SDF-1 was set from 8 pM to 100 nM; total reaction volume was 1 ml. Peptide and peptide-aptamer complexes were immobilized on 1.5 μl Streptavidin Ultralink Plus particles (Pierce Biotechnology, Rockford, USA) which had been preequilibrated with selection buffer and resuspended in a total volume of 6 μl. Particles were kept in suspension for 30 min at the respective temperature in a thermomixer. Immobilized radioactivity was quantitated in a scintillation counter after detaching the supernatant and appropriate washing. The percentage of binding was plotted against the concentration of biotinlayted human D-SDF-1 and dissociation constants were obtained by using software algorithms (GRAFIT; Erithacus Software; Surrey U.K.) assuming a 1:1 stoichiometry.

Data set [2] has as its target SDF-1 (Homo sapiens, UniProt P48061). As to the kind of experiment: Inhibition of SDF-1-induced chemotaxis, Jurkat cells. It is filed as cell-based. The note with it: for IC50: Spiegelmer, Jurkat cells migrating towards 0.3 nM human SDF-1, 3 h, 37° C., read-out: IC50, cell culture in vitro chemotaxis assay; for influence of the PEG-moiety on Spiegelmers potency to inhibit SDF-1 induced chemotaxis: Spiegelmer coupled to 40 kDa PEG at the 5′-end. As to the method: The human T cell leukemia cell line Jurkat, the human leukemic monocyte lymphoma cell line U937, the human pre-B cell leukemia cell line BV-173 and human pre-B ALL cell line Nalm-6 express CXCR4. […] All cells used were obtained from the DSMZ (Braunschweig). All cell lines were cultivated at 37° C. and 5% CO2 in RPMI 1640 medium with Glutamax (Invitrogen, Karlsruhe, Germany) which contains 10% fetal bovine serum, 100 units/ml penicillin and 100 μg/ml streptomycin (Invitrogen, Karlsruhe, Germany). One day before the experiment, cells were seeded in a new T175 flask with a density of 0.3×10^6/ml (Jurkat, U937, BV-173) or 0.75×10^6/ml (Nalm-6), respectively.
For the experiment, cells were centrifuged (5 min at 300 g), resuspended, counted and washed once with 15 ml HBH (Hanks balanced salt solution containing 1 mg/ml bovine serum albumin and 20 mM HEPES; Invitrogen, Karlsruhe, Germany). Then the cells were resuspended at 1.33×10^6/ml (Jurkat, U937, BV-173) or 2.67×10^6/ml (Nalm-6), respectively. Cells were then allowed to migrate through the porous membranes of the filter plates for three hours towards a solution containing SDF-1 and various amounts of Spiegelmer. The stimulation solutions (SDF-1+various concentrations of Spiegelmer) were made up as 10× solutions in a 0.2 ml low profile 96-tube plate. 212 μl HBH were pipetted into the lower compartments of the transport plate and 23.5 μl of the stimulation solutions were added. All conditions were made up as triplicates. After 20 to 30 min the filter plate was inserted into the plate containing the stimulation solutions and 75 μl of a cell suspension with 1.33×10^6/ml or 2.67×10^6/ml, respectively, were added to the wells of the filter plate (1×10^5 or 2×10^5 cells/well). The cells were then allowed to migrate for 3 h at 37° C. For calibration, 0, 10 and 30 μl of the cell suspension was added to 235, 225 and 205 μl HBH, respectively, in wells of a separate 96-well plate. After 3 hours incubation, the insert plate was removed and 30 μl resazurin working solution (440 μM in PBS) were added to the lower wells and to the wells of the calibration plate. The plates were then incubated at 37° C. for 2.5 h. After incubation, 100 μl of each well were transferred to a black 96 well plate.
For evaluation, fluorescence values were corrected for background fluorescence (no cells in well). Then the difference between experimental conditions with and without SDF-1 was calculated. The value for the sample without Spiegelmer (SDF-1 only) was set 100% and the values for the samples with Spiegelmer were calculated as percent of this. For a dose-response curve the percent-values were plotted against Spiegelmer concentration and the IC50-value (concentration of Spiegelmer at which 50% of the activity without Spiegelmer is present) was determined graphically from the resulting curve.

For data set [3], the system named is biotinylated human D-SDF-1. Description: Competitive pull-down binding assay. The settings on record: for binding affinity in competitive pull-down binding assay vs. 192-A10-001: aptamer level, reference 192-A10-001. The procedure: In order to compare different D-SDF-1 binding aptamers, a competitive ranking assay was performed. For this purpose the most affine aptamer available was radioactively labeled (see above) and served as reference. […] An excess of de- and renatured non-labeled D-RNA aptamer variants was added to different concentrations (e.g. 2, 10, and 50 nM) with the labeled reference aptamer to parallel binding reactions. The aptamers to be tested competed with the reference aptamer for target binding, thus decreasing the binding signal in dependence of their binding characteristics.

For data set [4], the target named is human SDF-1α (Homo sapiens, UniProt P48061). As to the kind of experiment: Surface plasmon resonance measurement (Biacore 2000). It counts as binding. The settings on record: Spiegelmer (L-RNA), 37° C. The procedure:
The Biacore 2000 instrument (Biacore AB, Uppsala, Sweden) was used to analyze binding of Spiegelmers to human SDF-1α. When coupling of human SDF-1α was to be achieved via amine groups, human SDF-1α was dialyzed against water for 1-2 h (Millipore VSWP mixed cellulose esters; pore size, […]) to remove interfering amines. CM4 sensor chips (Biacore AB, Uppsala, Sweden) were activated before protein coupling by a 35-μl injection of a 1:1 dilution of 0.4 M NHS and 0.1 M EDC at a flow of 5 μl/min. Human MCP-1 or human SDF-1α was then injected in concentrations of 0.1-1.5 μg/ml at a flow of 2 μl/min until the instrument's response was in the range of 1000-2000 RU (relative units). Unreacted NHS esters were deactivated by injection of 35 μl ethanolamine hydrochloride solution (pH 8.5) at a flow of 5 μl/min. The sensor chip was primed twice with binding buffer and equilibrated at 10 μl/min for 1-2 hours until the baseline appeared stable. For all proteins, kinetic parameters and dissociation constants were evaluated by a series of Spiegelmer injections at concentrations of 1000, 500, 250, 125, 62.5, 31.25, and 0 nM in selection buffer (Tris-HCl, 20 mM; NaCl, 137 mM; KCl, 5 mM; CaCl2, 1 mM; MgCl2, 1 mM; Tween20, 0.1% [w/v]; pH 7.4). In all experiments, the analysis was performed at 37° C. using the Kinject command defining an association time of 180 and a dissociation time of 360 seconds at a flow of 10 μl/min. Data analysis and calculation of dissociation constants (KD) was done with the BIAevaluation 3.0 software (BIACORE AB, Uppsala, Sweden) using the Langmuir 1:1 stochiometric fitting algorithm.

The test system of data set [5] is SDF-1 induced sprouting, rings from rat aorta. Description: Aortic ring sprouting assay. The note with it: 10 nM SDF-1 + 1 μM Spiegelmer, 6 days. It counts as cell-based. The procedure:
After 6 to 7 days, sprouting (i.e. outgrowth of endothelial cells) was analysed by taking pictures and determining a sprouting index.
Aortae from male rats were obtained from Bagheri Life sciences (Berlin, Germany). The aortae were prepared freshly and transported on ice in MCDB 131-Medium (Invitrogen, Karlsruhe, Germany) containing 50 units/ml penicillin, 50 μg/ml streptomycin (both Invitrogen, Karlsruhe, Germany) and 2.5 μg/ml fungizone (Cambrex, USA).
For an experiment a single aorta was transferred to a cell culture dish together with the medium and residual connective tissue was removed. Then the aorta was cut with a scalpel into rings of about 1 to 2 mm length. The rings were washed intensively (at least five times) in Medium199 (Invitrogen, Karlsruhe, Germany) and then placed in wells of a 24 well plate, containing 450 μl of collagen solution per well. […]
Sprouting was documented by taking pictures with a digital camera. […] Pictures were analysed with the Scion Image image processing software. […] A plot histogram along this line was generated by the software, histograms were printed and peaks (representing sprouts crossing the line) were counted. […] 4 to 5 rings per condition were evaluated. […]

[L-RNA-N] = L-ribonucleotide (mirror-image RNA, Spiegelmer), made from L-configured RNA phosphoramidites (N: the base); {PEG40k} = 40 kDa poly(ethylene glycol)

Chain of human SDF-1α (P48061 22-89): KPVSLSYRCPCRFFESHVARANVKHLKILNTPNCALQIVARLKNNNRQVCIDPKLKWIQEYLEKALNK
Chain of SDF-1 (P48061 22-89): as above

For the substance “GCUGUGAAAGCAACAUGUCAAUGAAAGGUAGCCGCAGC (aptamer; Made as D-RNA aptamer and L-RNA Spiegelmer, tested form not given here, further chemistry not given here) [192-A10-001]”, the Kd in data set [1] came to 1.5 nM. The IC50 in data set [2] turned out to be 0.12 nM.

On to “GCGUGGUGUGAUCUAGAUGUAUUGGCUGAUCCUAGUCAGGUACGC (chemistry not fully specified) [193-G2-012]”, for which the Kd in data set [1] was determined as 0.3 nM.

For the substance “GCCGGGGUUAGGGCUAGAAGUCGGCCGGC (chemistry not fully specified) [197-B2-006]”, the “binding affinity of truncated derivatives of 197-B2” value in data set [3] (vs. 197-B2 and 191-D5-007) is reported as “fully persisted”. In addition, in data set [2], the “influence of the PEG-moiety on Spiegelmers potency to inhibit SDF-1 induced chemotaxis” value (“influence … to inhibit SDF-1 induced chemotaxis” below) is on record as “no influence”.

Regarding “GCGUGAAAGCAACAUGUCAAUGAAAGGUAGCCGCGC (chemistry not fully specified) [192-A10-008]”, the “binding affinity of derivatives of 192-A10-001 in competitive pull-down binding assay” value in data set [3] (vs. 192-A10-001 and 192-A10-008) was “same binding affinity as shown for 192-A10-002”. In addition, the “influence … to inhibit SDF-1 induced chemotaxis” value in data set [2] is listed as “no influence”.

For the substance “AGCGUGGUGUGAUCUAGAUGUAUUGGCUGAUCCUAGUCAGGUACGCU (chemistry not fully specified) [193-G2-001]”, the “binding affinity in competitive pull-down binding assay vs. 192-A10-001” value in data set [3] is “superior binding”. The Kd in data set [1] turned out to be 0.3 nM. Moreover, the 50% inhibitory concentration (IC50) in data set [2] amounted to 0.08 nM.

On to “AGCGUGGCGAGGUUAGGGCUAGAAGUCGGUCGACACGCU (Made as D-RNA aptamer and L-RNA Spiegelmer, tested form not given here, further chemistry not given here) [191-D5-001]”, for which, in data set [3], the “binding affinity in competitive pull-down binding assay vs. 192-A10-001” value is recorded as “weaker binding affinities”. This substance had a dissociation constant Kd in data set [4] of 0.8 nM.

As to “CGGGAGGUUAGGGCUAGAAGUCGGUCCCG (chemistry not fully specified) [191-D5-007]”, in data set [3] (reference 191-D5-001), the “binding affinity in competitive pull-down binding assay vs. 191-D5-001” value is listed as “somewhat better”. Moreover, the Kd in data set [1] stood at 2.2 nM. Further, in data set [2], the “influence … to inhibit SDF-1 induced chemotaxis” value was “no influence” and the concentration for half-maximal inhibition (IC50) is 0.1 nM. Also, in data set [4], the affinity, expressed as Kd, was 0.8 nM.

As for “GAGAUAGGGGUUAGGGCUUAAAGUCGGCUGAUUCUC (aptamer; Made as D-RNA aptamer and L-RNA Spiegelmer, tested form not given here, further chemistry not given here) [190-A3-004]”, the “binding affinity of derivatives of 190-A3-001” value in data set [3] (compared with 190-A3-001) is listed as “does not have an influence on the binding affinity”. In addition, the dissociation constant (Kd) in data set [1] was 4.6 nM; in data set [4] it was 4.7 nM. Moreover, the half-inhibitory concentration (IC50) in data set [2] stood at 0.1 nM.

Take “GUGCUGCGGGGGUUAGGGCUAGAAGUCGGCCUGCAGCAC (aptamer; chemistry not fully specified) [197-B2]”: the “binding affinity in competitive pull-down binding assay vs. 192-A10-001” value in data set [3] is “weaker binding affinities”. Further, in data set [3] (reference 191-D5-007), the “binding affinity in competitive pull-down binding assay vs. 191-D5-007” value was “same binding affinity to SDF-1 as 191-D5-007”. In data set [4], this substance displayed a Kd of 0.9 nM.

Consider “5′-40 kDa-PEG-UAAGGAAACUCGGUCUGAUGCGGUAGCGCUGUGCAGAGCU (all [L-RNA-N], 5' {PEG40k}, backbone not given here) [Control Spiegelmer, reference compound]”, for which the “inhibition of SDF-1 induced chemotaxis” value in data set [2] (Jurkat cells, Control Spiegelmer up to 1 μM) is on record as “no inhibitory effect”. In data set [5], the “blockage of SDF-1 induced sprouting (sprouting index)” value was “No blockage”.
